Holding throughout (format): biochemical
For test [1], the target named is MMP9 (Homo sapiens, UniProt P14780). Put plainly: MMP-9 colorimetric inhibition assay (Enzo kit BML-AK410). The conditions noted are these: thiopeptide substrate, absorbance 415 nm; read-out: MMP 9 IC50 class. The gist of the method:
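Colorimetric thioester-substrate assay: hydrolysis of Ac-PLG-[2-mercapto-4-methylpentanoyl]-LG-OC2H5 frees a thiol that reacts with DTNB, read at 415 nm. Run per kit protocol. IC50 (nM) taken from inhibition curves of normalized values.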

For test [2], the target named is T1, MMP1 (Homo sapiens, UniProt P03956).
T1 sequence (P03956 100-269 limits assumed): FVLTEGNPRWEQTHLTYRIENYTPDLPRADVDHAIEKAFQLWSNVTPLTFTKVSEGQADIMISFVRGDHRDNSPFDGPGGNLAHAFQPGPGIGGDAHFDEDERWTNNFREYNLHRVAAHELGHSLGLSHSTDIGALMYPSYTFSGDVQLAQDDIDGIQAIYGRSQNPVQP
Put plainly: MMP-1 colorimetric inhibition assay (Enzo kit BML-AK404). The conditions noted are these: thiopeptide substrate, absorbance 415 nm; read-out: MMP 1 IC50 class. The method, boiled down:
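Colorimetric kit run per manufacturer protocol. MMP-1 cleaves a thiopeptide substrate (Ac-PLG-[2-mercapto-4-methylpentanoyl]-LG-OC2H5); released thiol reacts with DTNB, monitored at 415 nm. IC50 (nM) from inhibition curves of normalized values.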

For test [3], the target named is T2, ADAM10 (Homo sapiens, UniProt O14672).
T2 construct: purchased AnaSpec, Inc. AS-72226
T2 sequence (O14672 214-748): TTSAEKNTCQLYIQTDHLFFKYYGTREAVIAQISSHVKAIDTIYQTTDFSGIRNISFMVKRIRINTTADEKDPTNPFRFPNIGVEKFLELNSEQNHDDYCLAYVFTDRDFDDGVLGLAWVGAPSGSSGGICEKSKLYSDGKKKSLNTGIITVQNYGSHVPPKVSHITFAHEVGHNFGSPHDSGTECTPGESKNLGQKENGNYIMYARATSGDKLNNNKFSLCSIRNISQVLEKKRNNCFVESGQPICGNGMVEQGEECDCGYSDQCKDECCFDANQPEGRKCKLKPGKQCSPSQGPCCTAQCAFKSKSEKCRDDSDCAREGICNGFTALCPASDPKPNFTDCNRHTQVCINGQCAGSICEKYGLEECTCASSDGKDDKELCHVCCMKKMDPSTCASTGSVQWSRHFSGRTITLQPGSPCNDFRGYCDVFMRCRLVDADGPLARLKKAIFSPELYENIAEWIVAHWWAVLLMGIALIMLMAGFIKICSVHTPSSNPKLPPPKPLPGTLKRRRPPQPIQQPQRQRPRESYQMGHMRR
Put plainly: SensoLyte 520 ADAM10 fluorometric activity assay (AnaSpec AS-72226). The procedure: The inhibitory activities of the compounds of the invention were assessed in 96-well microplate format using MMP1, MMP2, MMP9 and MMP13 colorimetric assay kits and TACE fluorometric assay kit from Enzo Life Sciences, Inc. The inhibitory effect of the compounds of the invention on ADAM10 activity were evaluated in 96-well microplate format using fluorometric assay from AnaSpec, Inc.
SensoLyte® 520 ADAM10 Activity Assay Kit (catalog #AS-72226) is a complete assay system designed to screen ADAM10 inhibitors using FRET-based peptide substrate containing the 5-FAM/QXL™ 520 fluorophore/quencher pair. The fluorescence of 5-FAM is quenched by QXL™ 520 and recovered upon cleavage of the peptide by active ADAM10.
The inhibitory activity of the compounds of the invention against ADAM10 was tested according to the manufacturer's assay protocol and the fluorescence was monitored at excitation/emission wavelengths=495 nm/520 nm using Tecan Infinite® 200 Pro F Nano^+ microplate reader.
The normalized values were analyzed using GraphPadPrism 9 for Windows (GraphPad Software, San Diego, CA, USA) software by plotting inhibition curves and determining the IC50 values (in nM).

In test [4] the target is T3, MMP13 (Homo sapiens, UniProt P45452).
T3 construct: purchased Enzo Life Sciences, Inc. BML-AK412
In words: MMP-13 colorimetric inhibition assay (Enzo kit BML-AK412). The conditions noted are these: thiopeptide substrate, absorbance 415 nm; read-out: MMP 13 IC50 class. The gist of the method: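 Thiopeptide chromogenic substrate (Ac-PLG-[2-mercapto-4-methylpentanoyl]-LG-OC2H5); MMP-13 hydrolysis of the thioester yields a thiol that reacts with DTNB, read at 415 nm. IC50 values (nM) derived from inhibition curves of normalized data.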

The target of test [5] is ADAM17 (TACE) (Homo sapiens, UniProt P78536). In words: TACE fluorometric inhibition assay (Enzo kit BML-AK310). The conditions noted are these: quenched fluorogenic peptide, ex/em 320/420 nm; read-out: TACE IC50 class. The method, boiled down:
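Kit-based TACE assay run per manufacturer's protocol, using quenched fluorogenic peptide Mca-PLAQAV-Dpa-RSSSR-NH2 whose cleavage raises Mca fluorescence. Signal read at ex/em 320/420 nm; IC50 (nM) derived from inhibition curves of normalized values.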

Test [6] addresses T4, MMP2 (Homo sapiens, UniProt P08253).
T4 sequence (P08253 110-660): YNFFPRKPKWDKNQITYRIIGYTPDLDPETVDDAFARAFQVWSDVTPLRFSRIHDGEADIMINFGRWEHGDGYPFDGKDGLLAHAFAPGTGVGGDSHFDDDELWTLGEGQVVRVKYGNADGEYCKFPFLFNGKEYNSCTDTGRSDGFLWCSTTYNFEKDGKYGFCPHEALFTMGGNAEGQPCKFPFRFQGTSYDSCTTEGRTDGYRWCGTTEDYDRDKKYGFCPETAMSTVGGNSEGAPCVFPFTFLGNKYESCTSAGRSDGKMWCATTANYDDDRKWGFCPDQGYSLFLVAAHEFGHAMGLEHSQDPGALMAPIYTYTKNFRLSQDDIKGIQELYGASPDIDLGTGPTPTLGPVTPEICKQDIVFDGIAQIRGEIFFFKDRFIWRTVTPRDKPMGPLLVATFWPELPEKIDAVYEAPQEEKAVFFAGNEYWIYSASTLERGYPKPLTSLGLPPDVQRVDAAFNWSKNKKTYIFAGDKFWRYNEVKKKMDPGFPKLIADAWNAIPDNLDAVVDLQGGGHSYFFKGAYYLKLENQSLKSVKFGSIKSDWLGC
In words: MMP-2 colorimetric inhibition assay (Enzo kit BML-AK408). The conditions noted are these: thiopeptide substrate, absorbance 415 nm; read-out: MMP 2 IC50 class. The gist of the method: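 Cleavage of the thiopeptide Ac-PLG-[2-mercapto-4-methylpentanoyl]-LG-OC2H5 releases a sulfhydryl that reacts with DTNB, read at 415 nm per the kit protocol. IC50 values (nM) come from inhibition curves of normalized data.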

[7] abbreviates: FRET peptide substrate, ex/em 495/520 nm, read-out: ADAM 10 IC50 class.

Where two headings read alike, the source gives them in different places.

Chain of MMP9 (P14780 94-707): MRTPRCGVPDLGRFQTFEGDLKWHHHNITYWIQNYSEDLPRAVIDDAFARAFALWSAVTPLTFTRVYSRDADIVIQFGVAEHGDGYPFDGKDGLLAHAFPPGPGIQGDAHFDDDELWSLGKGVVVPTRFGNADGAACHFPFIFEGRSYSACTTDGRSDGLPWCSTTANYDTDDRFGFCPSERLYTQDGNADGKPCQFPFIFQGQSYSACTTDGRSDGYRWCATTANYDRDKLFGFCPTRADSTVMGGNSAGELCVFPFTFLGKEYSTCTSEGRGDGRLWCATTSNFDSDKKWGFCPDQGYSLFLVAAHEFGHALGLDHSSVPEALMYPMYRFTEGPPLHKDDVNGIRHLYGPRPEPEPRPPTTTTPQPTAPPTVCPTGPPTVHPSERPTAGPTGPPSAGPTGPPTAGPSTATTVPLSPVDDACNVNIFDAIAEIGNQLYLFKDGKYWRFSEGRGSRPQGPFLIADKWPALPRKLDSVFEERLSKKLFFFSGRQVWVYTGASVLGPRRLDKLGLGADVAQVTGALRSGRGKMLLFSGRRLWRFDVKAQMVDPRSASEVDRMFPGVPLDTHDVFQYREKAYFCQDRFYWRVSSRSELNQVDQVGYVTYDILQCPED
Chain of ADAM17 (TACE) (P78536 215-477 limits assumed): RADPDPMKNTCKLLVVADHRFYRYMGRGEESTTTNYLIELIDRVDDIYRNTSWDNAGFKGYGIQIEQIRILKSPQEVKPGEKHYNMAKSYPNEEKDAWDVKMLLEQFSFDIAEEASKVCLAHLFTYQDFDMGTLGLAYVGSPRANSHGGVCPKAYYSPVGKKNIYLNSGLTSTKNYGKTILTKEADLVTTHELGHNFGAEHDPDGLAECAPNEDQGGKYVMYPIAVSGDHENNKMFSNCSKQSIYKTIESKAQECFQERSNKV

For orientation: IC50 means the concentration at which inhibition is half-maximal. `COCCOC(=O)N1[C@@H]2CC[C@H]1[C@H](C(=O)NO)N(S(=O)(=O)c1ccc(OC3CCCCC3)nc1)C2` [Example 10, 2-methoxyethyl (1S,2R,5R)-3-((6-(cyclohexyloxy)pyridin-3-yl)sulfonyl)-2-(hydroxycarbamoyl)-3,8-diazabicyclo[3.2.1]octane-8-carboxylate]: the IC50 is less than 50 nM in test [1]; 50 to 1000 nM in test [2]; greater than 10000 nM in test [3] (setting [7]); less than 50 nM in test [4]; 1000 to 10000 nM in test [5]; less than 50 nM in test [6].

For the compound `COCCOC(=O)N1[C@@H]2CC[C@H]1[C@H](C(=O)NO)N(S(=O)(=O)N1CCC(Oc3ccc(F)cc3)CC1)C2` [Example 45, 2-methoxyethyl (1S,2R,5R)-3-((4-(4-fluoro-phenoxy)-piperidin-1-yl)-sulfonyl)-2-(hydroxy-carbamoyl)-3,8-diazabicyclo-[3.2.1]octane-8-carboxylate], the half-inhibitory concentration (IC50) was less than 50 nM in test [1]; 50 to 1000 nM in test [2]; 1000 to 10000 nM in test [3] (setting [7]); less than 50 nM in test [4]; 50 to 1000 nM in test [5]; less than 50 nM in test [6].

On to `COC(=O)N1[C@@H]2CC[C@H]1[C@H](C(=O)NO)N(S(=O)(=O)c1ccc(Oc3ccc(F)cc3)nc1)C2` [Example 66, methyl (1S,2R,5R)-3-((6-(4-fluoro-phenoxy)pyridin-3-yl)sulfonyl)-2-(hydroxycarbamoyl)-3,8-diazabicyclo-[3.2.1]octane-8-carboxylate], for which the half-maximal inhibitory concentration (IC50) was less than 50 nM in test [1]; 1000 to 10000 nM in test [2]; greater than 10000 nM in test [3] (setting [7]); less than 50 nM in test [4]; 1000 to 10000 nM in test [5]; less than 50 nM in test [6].

On to `COCCOC(=O)N1[C@@H]2CC[C@H]1[C@H](C(=O)NO)N(S(=O)(=O)c1ccc(Oc3ccc(F)c(F)c3)nc1)C2` [Example 22, 2-methoxyethyl (1S,2R,5R)-3-((6-(3,4-difluoro-phenoxy)pyridin-3-yl)sulfonyl)-2-(hydroxycarbamoyl)-3,8-diazabicyclo-[3.2.1]octane-8-carboxylate], for which the IC50 was less than 50 nM in test [1]; 50 to 1000 nM in test [2]; greater than 10000 nM in test [3] (setting [7]); less than 50 nM in test [4]; 50 to 1000 nM in test [5]; less than 50 nM in test [6].

On to `CC(=O)N1[C@@H]2CC[C@H]1[C@H](C(=O)NO)N(S(=O)(=O)c1ccc(Oc3ccc(OC(F)(F)F)cc3)nc1)C2` [Example 54, (1S,2R,5R)-8-acetyl-N-hydroxy-3-((6-(4-(trifluoromethoxy)-phenoxy)pyridin-3-yl)sulfonyl)-3,8-diazabicyclo[3.2.1]-octane-2-carboxamide], for which the IC50 in test [1] was less than 50 nM; in test [2], 1000 to 10000 nM; in test [3] (setting [7]) it was greater than 10000 nM; in test [4] it was less than 50 nM; in test [5], 1000 to 10000 nM; in test [6], less than 50 nM.

As for `CC(=O)N1[C@@H]2CC[C@H]1[C@H](C(=O)NO)N(S(=O)(=O)c1ccc(Oc3ccc(OC(C)C)cc3)nc1)C2` [Example 58, (1S,2R,5R)-8-acetyl-N-hydroxy-3-((6-(4-isopropoxyphenoxy)-pyridin-3-yl)-sulfonyl)-3,8-diazabicyclo-[3.2.1]octane-2-carboxamide], the IC50 in test [1] is less than 50 nM; in test [2], 1000 to 10000 nM; in test [3] (setting [7]) it was greater than 10000 nM; in test [4] it was less than 50 nM; in test [5], greater than 10000 nM; in test [6] it was less than 50 nM.

With `CC(=O)N1[C@@H]2CC[C@H]1[C@H](C(=O)NO)N(S(=O)(=O)c1ccc(Oc3ccc(F)cc3)nc1)C2` [Example 53, (1S,2R,5R)-8-acetyl-3-((6-(4-fluorophenoxy)pyridin-3-yl)sulfonyl)-N-hydroxy-3,8-diazabicyclo[3.2.1]octane-2-carboxamide], the IC50 in test [1] was less than 50 nM; in test [2], 50 to 1000 nM; in test [3] (setting [7]), greater than 10000 nM; in test [4] it was less than 50 nM; in test [5], 1000 to 10000 nM; in test [6], less than 50 nM.

For the compound `COc1ccc(Oc2ccc(S(=O)(=O)N3C[C@H]4CC[C@@H]([C@@H]3C(=O)NO)N4C(C)=O)cn2)cc1F` [Example 63, (1S,2R,5R)-8-acetyl-3-((6-(3-fluoro-4-methoxyphenoxy)-pyridin-3-yl)-sulfonyl)-N-hydroxy-3,8-diazabicyclo[3.2.1]-octane-2-carboxamide], the IC50 was less than 50 nM in test [1]; 1000 to 10000 nM in test [2]; 1000 to 10000 nM in test [3] (setting [7]); less than 50 nM in test [4]; 1000 to 10000 nM in test [5]; less than 50 nM in test [6].

`COCCOC(=O)N1[C@@H]2CC[C@H]1[C@H](C(=O)NO)N(S(=O)(=O)c1ccc(Oc3ccc(OC(C)C)cc3)nc1)C2` [Example 30, 2-methoxyethyl (1S,2R,5R)-2-(hydroxycarbamoyl)-3-((6-(4-isopropoxy-phenoxy)pyridin-3-yl)sulfonyl)-3,8-diazabicyclo[3.2.1]-octane-8-carboxylate]: the IC50 in test [1] was less than 50 nM; in test [2], 50 to 1000 nM; in test [3] (setting [7]) it was greater than 10000 nM; in test [4], less than 50 nM; in test [5], 1000 to 10000 nM; in test [6], less than 50 nM.

With `COCCOC(=O)N1[C@@H]2CC[C@H]1[C@H](C(=O)NO)N(S(=O)(=O)N1CCC(Oc3ccc(C(F)(F)F)cc3)CC1)C2` [Example 48, 2-methoxyethyl (1S,2R,5R)-2-(hydroxy-carbamoyl)-3-((4-(4-(trifluoromethyl)phenoxy)-piperidin-1-yl)-sulfonyl)-3,8-diazabicyclo-[3.2.1]octane-8-carboxylate], the IC50 in test [1] was less than 50 nM; in test [2], 1000 to 10000 nM; in test [3], 50 to 1000 nM; in test [4] it was less than 50 nM; in test [5] it was less than 50 nM; in test [6], less than 50 nM.

Source of the values: US20250215010A1, “DIAZABICYCLOOCTANE DERIVATIVES USEFUL AS MATRIX METALLOPROTEINASE INHIBITORS” (VASA THERAPEUTICS SPOLKA Z OGRANICZONA ODPOWIEDZIALNOSCIA, priority 2022, published 2025).
